Results from PubChem BioAssay AID1117287 (Broad Institute, 2014).
Active and inactive are the calls of the source.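 Rule for the calls: active = inhibitor whose half-maximal potency stays within twice the top tested dose in every replicate test; inconclusive = mixed calls across tests, weak flat response, or poor curve fit; inactive = all tests inactive, including rising signal.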

Target: Endoplasmic reticulum aminopeptidase 1 (Homo sapiens) (UniProt Q9NZ08)
Test: ERAP1 aminopeptidase inhibitors, dose response, biochemical, fluorescence, dry powder, set 2 (AID 1117287)
Conditions: ERAP1, Leu-AMC fluorescence, 60 min

Chain of Endoplasmic reticulum aminopeptidase 1 (Homo sapiens) (Q9NZ08 whole entry, looked up): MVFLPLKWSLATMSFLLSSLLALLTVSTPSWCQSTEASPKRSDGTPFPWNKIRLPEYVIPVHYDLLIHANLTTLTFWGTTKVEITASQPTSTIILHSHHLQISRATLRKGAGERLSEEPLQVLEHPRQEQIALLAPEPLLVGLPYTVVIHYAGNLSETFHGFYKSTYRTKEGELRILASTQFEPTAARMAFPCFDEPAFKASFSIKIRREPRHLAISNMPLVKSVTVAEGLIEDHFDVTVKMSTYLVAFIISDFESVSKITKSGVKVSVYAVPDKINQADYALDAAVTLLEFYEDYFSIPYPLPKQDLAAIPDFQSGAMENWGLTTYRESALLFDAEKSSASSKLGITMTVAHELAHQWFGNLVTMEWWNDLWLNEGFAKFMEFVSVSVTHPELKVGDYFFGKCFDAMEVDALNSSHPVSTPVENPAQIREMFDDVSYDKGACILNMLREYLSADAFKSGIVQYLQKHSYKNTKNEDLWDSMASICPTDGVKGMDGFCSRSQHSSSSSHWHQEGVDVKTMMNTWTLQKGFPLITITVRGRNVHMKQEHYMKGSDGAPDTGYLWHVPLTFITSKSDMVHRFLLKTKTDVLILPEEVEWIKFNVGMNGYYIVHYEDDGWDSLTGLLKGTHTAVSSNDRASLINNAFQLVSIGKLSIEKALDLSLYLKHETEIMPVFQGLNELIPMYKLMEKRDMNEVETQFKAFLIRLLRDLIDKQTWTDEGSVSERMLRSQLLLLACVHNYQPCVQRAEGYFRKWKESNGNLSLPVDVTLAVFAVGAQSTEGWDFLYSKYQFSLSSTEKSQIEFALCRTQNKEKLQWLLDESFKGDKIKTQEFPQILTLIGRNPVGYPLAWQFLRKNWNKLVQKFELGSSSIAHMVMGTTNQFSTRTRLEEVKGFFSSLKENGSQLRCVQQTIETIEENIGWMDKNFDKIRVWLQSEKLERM

Row | SMILES | AC50
1 | COc1ccc(C(=O)O)cc1S(=O)(=O)Nc1cccc(N2CCCCC2)c1C(F)(F)F | > 100 µM (inactive)
2 | COc1ccc(C(=O)O)cc1S(=O)(=O)Nc1ccc(N2CCCCC2)cc1C(F)(F)F | > 100 µM (inactive)
3 | COc1ccc(C(=O)O)cc1S(=O)(=O)N1CCN(c2ccc(C(F)(F)F)cc2N)CC1 | > 100 µM (inactive)

Same assay, conditions: ERAP1, Leu-AMC fluorescence, 60 min; at 26 µM (top of the series)

Row | SMILES | activity change, negative = inhibition
4 | O=S(=O)(O)c1ccc(N2N=C(c3ccccc3)CC2c2ccccc2)cc1 (stereo not drawn) | inactive

Same assay, conditions: ERAP1, Leu-AMC fluorescence, 60 min; at 26 µM (top of the series); above what the read-out allows, likely interference

Row | SMILES | activity change, negative = inhibition
5 | COc1ccc(C2=NN(c3ccc(C(=O)O)cc3)C(c3ccc(OC)c(OC)c3)C2)cc1 (stereo not drawn) | inactive

Same assay, conditions: ERAP1, Leu-AMC fluorescence, 60 min; at 50 µM (top of the series)

Row | SMILES | activity change, negative = inhibition
6 | Cc1ccc(C(=O)O)cc1S(=O)(=O)Nc1cc(C(F)(F)F)ccc1N1CCCCC1 | inactive
7 | COc1ccc(C(=O)O)cc1S(=O)(=O)Nc1cc(C(F)(F)F)ccc1N1CCCCC1 | inactive
8 | COc1ccc(C(=O)Nc2cccc(C(F)(F)F)c2)cc1S(=O)(=O)O | inactive
9 | O=C(O)c1cc(F)cc(S(=O)(=O)Nc2cc(C(F)(F)F)ccc2N2CCCCC2)c1 | inactive
10 | COc1ccc(C(=O)O)cc1S(=O)(=O)Nc1cc(C(F)(F)F)ccc1N(C)C | inactive
11 | Cc1ccc(S(=O)(=O)Nc2cc(C(F)(F)F)ccc2N2CCCCC2)cc1C(=O)O | inactive
12 | COc1ccc(C(=O)O)cc1S(=O)(=O)Nc1cc(C(F)(F)F)ccc1N1CCOCC1 | inactive
13 | COc1ccc(C(=O)O)cc1S(=O)(=O)Nc1cc(C(F)(F)F)ccc1N1CCN(C(C)=O)CC1 | inactive
